Laboratory results taken from patent US7148200B2, “Method for treating cancer” (Toyo Suisan Kaisha, Ltd., priority 1999, dated 2006).
Structures can show the parent of a compound that is named as a salt.

Molecular target: T1, DNA polymerase α (Bos taurus, UniProt A0AAA9TD94)
T1 construct: from tissue; host or cells: bovine thymus
T1 sequence (A0AAA9TD94 1-1441): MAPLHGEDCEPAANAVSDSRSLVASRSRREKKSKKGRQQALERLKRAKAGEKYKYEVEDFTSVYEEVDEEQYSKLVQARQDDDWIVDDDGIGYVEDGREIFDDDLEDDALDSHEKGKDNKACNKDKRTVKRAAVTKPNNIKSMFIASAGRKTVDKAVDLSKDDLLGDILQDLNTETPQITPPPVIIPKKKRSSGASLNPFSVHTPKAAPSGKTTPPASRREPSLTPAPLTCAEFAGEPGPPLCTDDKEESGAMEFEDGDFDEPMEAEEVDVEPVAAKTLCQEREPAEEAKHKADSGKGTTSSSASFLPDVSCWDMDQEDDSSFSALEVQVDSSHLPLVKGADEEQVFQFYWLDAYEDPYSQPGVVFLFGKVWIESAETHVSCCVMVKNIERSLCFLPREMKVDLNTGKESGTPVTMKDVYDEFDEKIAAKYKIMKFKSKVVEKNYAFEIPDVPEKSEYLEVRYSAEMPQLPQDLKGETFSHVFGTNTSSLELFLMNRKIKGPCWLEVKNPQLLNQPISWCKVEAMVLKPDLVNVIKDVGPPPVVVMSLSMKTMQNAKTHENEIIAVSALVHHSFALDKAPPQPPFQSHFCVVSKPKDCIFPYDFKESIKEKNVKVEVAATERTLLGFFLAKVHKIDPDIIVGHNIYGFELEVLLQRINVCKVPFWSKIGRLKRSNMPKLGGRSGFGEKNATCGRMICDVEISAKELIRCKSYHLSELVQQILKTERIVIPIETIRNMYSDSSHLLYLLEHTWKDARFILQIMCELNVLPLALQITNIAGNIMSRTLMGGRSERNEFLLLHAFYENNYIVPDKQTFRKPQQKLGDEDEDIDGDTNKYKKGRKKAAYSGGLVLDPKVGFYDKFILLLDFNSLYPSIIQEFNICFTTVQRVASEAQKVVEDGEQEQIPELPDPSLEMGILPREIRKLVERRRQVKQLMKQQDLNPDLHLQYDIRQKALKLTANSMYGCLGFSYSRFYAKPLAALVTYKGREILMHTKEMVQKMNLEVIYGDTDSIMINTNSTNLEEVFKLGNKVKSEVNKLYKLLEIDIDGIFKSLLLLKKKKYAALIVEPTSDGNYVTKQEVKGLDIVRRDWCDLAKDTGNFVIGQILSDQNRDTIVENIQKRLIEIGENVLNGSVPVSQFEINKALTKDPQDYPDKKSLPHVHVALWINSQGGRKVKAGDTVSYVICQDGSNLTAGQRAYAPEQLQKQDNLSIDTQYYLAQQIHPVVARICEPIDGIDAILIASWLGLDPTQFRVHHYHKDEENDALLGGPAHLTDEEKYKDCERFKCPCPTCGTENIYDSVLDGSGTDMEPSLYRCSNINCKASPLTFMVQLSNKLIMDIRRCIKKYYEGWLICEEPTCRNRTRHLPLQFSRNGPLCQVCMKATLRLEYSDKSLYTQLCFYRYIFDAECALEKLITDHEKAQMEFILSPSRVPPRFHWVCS
Assay: Assay 1: inhibitory effect against DNA polymerase α ([3H]-dTTP incorporation)
Type: biochemical
Settings: DNA polymerase α from bovine thymus, 37° C., 60 minutes
Description: An assay on inhibitory effect against a DNA polymerase α was carried out in the following manner.
0.05 U of a DNA polymerase α purified and isolated from a bovine thymus by an immunoaffinity column was mixed with each of test compounds, sulfopyranosylacylglycerol (hereinafter, simply referred to as “SQAG”) derivatives, namely, SQAG 1, SQAG 2 and SQAG 3 (listed in table 1) dissolved in DMSO. Each mixture was added with a buffer containing inorganic salts for the enzymatic reaction, [^3H]-labeled dTTP and compounds for reaction containing a template DNA strand, and incubated at 37° C. for 60 minutes.
After the enzymatic reaction was quenched, the resultant reaction product was fixed on a dedicated filter and subjected to measurement by a liquid scintillation counter. The amount of enzymatically incorporated dTTP was calculated as a radiation dose (cpm) of [^3H]. Note that, each of the sulfopyranosylacylglycerol derivatives is a mixture of the S- and R-configurations with respect to an absolute configuration of the carbon of the 2-position of the glycerol moiety.

Going from `CCCC/C=C\CCCCCCCC(=O)OCC(O)CO[C@H]1O[C@H](CS(=O)(=O)O)[C@@H](O)[C@H](O)[C@H]1O` (mixture of isomers) [SQAG1, 3-O-(6-deoxy-6-sulfo-α-D-glucopyranosyl)-1-o-myristoleoly-glycerol sodium salt] to `CCCCCC/C=C\CCCCCCCC(=O)OCC(O)CO[C@H]1O[C@H](CS(=O)(=O)O)[C@@H](O)[C@H](O)[C@H]1O` (stereo partly drawn) [SQAG2, 3-O-(6-deoxy-6-sulfo-α-D-glucopyranosyl)-1-O-palmitoleoyl-glycerol sodium salt], the IC50 falls from 17.1 µM to 9.54 µM (1.8-fold). The second is the more potent here.

Compound `CCCCCCCC/C=C\CCCCCCCC(=O)OCC(O)CO[C@H]1O[C@H](CS(=O)(=O)O)[C@@H](O)[C@H](O)[C@H]1O` (stereo partly drawn) [SQAG3, 3-O-(6-deoxy-6-sulfo-α-D-glucopyranosyl)-1-O-oleoyl-glycerol Sodium Salt] has an IC50 of 3.31 µM.
